Test results: patent US20090105301A1, “9A-SUBSTITUTED AZALIDES FOR THE TREATMENT OF MALARIA” (priority 2006, published 2009)
Converted amounts (≈) assume the structure as drawn.

Tests used:
[1] = system: Plasmodium falciparum strain W2; test: In vitro screening protocol II, [3H] hypoxanthine incorporation IC50 assay, W2; assay type: cell-based; conditions: P. falciparum W2; for IC50: Plasmodium falciparum
Procedure: (§1) The protocol described here is a modification of the in vitro screening protocol I and the details of the methodology are given below.
(§2) Plasmodium falciparum strains 3D7A and W2.
(§3) The culture medium comprised RPMI 1640 with 25 mM HEPES, sodium bicarbonate and glutamine (GIBCO™ cat. ref.: 52400), supplemented with 10% of pooled human sera AB (Bioreclamation HMSRM-AB)) and HT supplement (0.15 mM hypoxanthine and 24 μM thymidine), (GIBCO™ cat. ref.: 41065). Human sera were decomplemented 30 min. at 56° C., aliquoted and stored frozen at −20° C. until use in this culture medium.
(§4) This culture medium (“complete medium”) was usually prepared fresh just before use and pre-warmed to 37° C.
(§5) Red blood cells AB− stock suspensions were prepared from whole blood bags coming from incomplete blood donation, provided by the Spanish Red Cross (<25 days after sampling). This “whole blood” was aliquoted and stored at 4° C.
(§6) To prepare red blood cells for the assay, the whole blood was centrifuged and washed 3 times with RPMI without serum. The upper phase, containing white blood cells was removed. The washed red blood cells were kept as a 50% suspension in complete medium. The prepared cells were stored at 4° C. and were employed in the assay at any time up to 4 days after preparation.
(§7) Test compounds were dissolved at 2 mg/ml in 100% DMSO on the day of the assay. If necessary, complete dissolution was achieved by gentle heating (the mixture was heated at a temperature <37° C.) and sonication (sonication bath).
(§8) For IC50 determinations, 10 serial 2-fold dilutions were prepared in complete medium in the presence of a constant amount of DMSO. Any obvious signs of insolubility of the stock solutions in 100% DMSO or precipitation when these solutions were diluted in assay media, were recorded.
(§9) Plasmodium falciparum strains were maintained in complete medium at 5% of hematocrit in continuous culture using a method adapted from Trager W. and Jensen J. B. (Human malaria parasites in continuous culture Science 193 (4254) (1976) 673-675) and Trager W. (Cultivation of malaria parasites Methods Cell Biol. 45 (1994) 7-26).
(§10) The parasitemia was calculated by counting the percentage of parasitized erythrocytes by optical microscopy. Thin films of blood were made every day from each culture flask, fixed with methanol and stained for 10 min. in Giemsa (Merck, cat ref.: 1.09204) at 10% in buffered water pH 7.2. The glass slides were observed and counted with an optical microscope (Nikon, Eclipse E200) equipped with a 100× immersion oil objective.
(§11) The culture was maintained at 5% of hematocrit, with a daily change of medium and was diluted when parasitemia had reached about 5%.
(§12) [^3H] Hypoxanthine incorporation assay was conducted using a method adapted from Desjardins R. E. et al. (Quantitative assessment of antimalarial activity in vitro by a semiautomated microdilution technique. Antimicrob. Agents Chemother., 16 (6) (1979) 710-718). The assays were performed in 96 wells flat bottom microplates.
(§13) 1. Serial dilutions of each test compound (25 μl of a 5× solution/well) were deposited in one row of assay microtiter plate. Compounds of this invention were tested in this assay. Chloroquine and Azithromycin were used as control compounds for each assay.
(§14) 2. […] 100 μl of the resulting suspension was distributed into each well of columns 1-11 of assay microtiter plate leading to a final volume of 125 μl per well, at 1.2% of hematocrit and 0.4% of parasitemia/well.
(§15) 3. In each plate, 2 columns were reserved for control wells: • Column 11 (comprising wells A11-H11): Positive control wells: Untreated PRBCs to compare with cultures treated with test compounds. • Column 12 (comprising wells A12-H12): • Background value wells: Uninfected RBCs—blank control to obtain the background reading from RBCs without parasites (at 1.2% of hematocrite value).
(§16) 4. The plates were incubated at 37° C. under low oxygen atmosphere. […]

[2] = system: Plasmodium falciparum strain 3D7A; test: In vitro screening protocol II, [3H] hypoxanthine incorporation IC50 assay, 3D7A; assay type: cell-based; conditions: P. falciparum 3D7A; for IC50: Plasmodium falciparum
Procedure: as §1, §2, §3, §4, §5, §6, §7, §8, §9, §10, §11, §12, §13, §14, §15, §16

“9a-(3-{[(4-Nitrophenyl)acetyl]amino}propyl)-9-deoxo-9-dihydro-9a-aza-9a-homoerythromycin A Formiate Salt [Example 64]” was tested, and the “IC50 W2” value [1] was “C (200 < X ≦ 1000)” and the “IC50 3D7A” value [2] was “D (1000 < X ≦ 2500)”.

`CC(=O)O.CC(=O)O.CC[C@H]1OC(=O)[C@H](C)[C@@H](O[C@H]2C[C@@](C)(OC)[C@@H](O)[C@H](C)O2)[C@H](C)[C@@H](O[C@@H]2O[C@H](C)C[C@H](N(C)C)[C@H]2O)[C@](C)(O)C[C@@H](C)CN(CCCNC(=O)CCc2ccccc2)[C@H](C)[C@@H](O)[C@]1(C)O` [Example 47, 9a-{3-[(3-Phenylpropanoyl)amino]propyl}-9a-aza-9-deoxo-9-dihydro-9a-homoerythromycin A Diacetate Salt] was tested, and the “IC50 W2” value [1] was “D (1000 < X ≦ 2500)” and the “IC50 3D7A” value [2] was “D (1000 < X ≦ 2500)”.

In the case of `CC[C@H]1OC(=O)[C@H](C)[C@@H](O[C@H]2C[C@@](C)(OC)[C@@H](O)[C@H](C)O2)[C@H](C)[C@@H](O[C@@H]2O[C@H](C)C[C@H](N(C)C)[C@H]2O)[C@](C)(O)C[C@@H](C)CN(CCCNCc2ccc3ccccc3c2)[C@H](C)[C@@H](O)[C@]1(C)O` [Example 54, 9a-{3-[(Naphtalen-2-yl-methyl)amino]propyl}-9-deoxo-9-dihydro-9a-aza-9a-homoerythromycin A], the IC50 [1] is reported as < 0.1 µg/mL and the IC50 [2] is reported as 0.1 to 0.2 µg/mL (≈ 0.107 to 0.215 µM).

In the case of `CC[C@H]1OC(=O)[C@H](C)[C@@H](O[C@H]2C[C@@](C)(OC)[C@@H](O)[C@H](C)O2)[C@H](C)[C@@H](O[C@@H]2O[C@H](C)C[C@H](N(C)C)[C@H]2O)[C@](C)(O)C[C@@H](C)CN(CCCNCC2CCNc3ccccc32)[C@H](C)[C@@H](O)[C@]1(C)O` (some centres unmarked) [Example 55, 9a-{3-[(1,2,3,4-tetrahydro-quinolin-4-yl-methyl)amino]propyl}-9-deoxo-9-dihydro-9a-aza-9a-homoerythromycin A], the IC50 [1] is reported as < 0.1 µg/mL and the IC50 [2] is reported as 0.2 to 1 µg/mL (≈ 0.213 to 1.07 µM).

`CC[C@H]1OC(=O)[C@H](C)[C@@H](O)[C@H](C)[C@@H](O)[C@](C)(O)C[C@@H](C)CN(CCCNc2ccnc3cc(Cl)ccc23)[C@H](C)[C@@H](O)[C@]1(C)O` [Example 56] was tested, and the IC50 [1] was 0.1 to 0.2 µg/mL (≈ 0.157 to 0.313 µM) and the IC50 [2] was < 0.1 µg/mL.

`CCC1OC(=O)C(C)C(OC2CC(C)(OC)C(O)C(C)O2)C(C)C(OC2OC(C)CC(N(C)C)C2O)C(C)(O)CC(C)CN(CCCNC(=O)Cc2ccc(OC)cc2)C(C)C(O)C1(C)O.O=CO` (centres unmarked) [Example 58, 9a-[3-({[4-(Methyloxy)phenyl]acetyl}amino)propyl]-9-deoxo-9-dihydro-9a-aza-9a-homoerythromycin A Formiate Salt] was tested, and the “IC50 W2” value [1] was “C (200 < X ≦ 1000)” and the “IC50 3D7A” value [2] was “G (3500 < X ≦ 5000)”.

`CCC1OC(=O)C(C)C(OC2CC(C)(OC)C(O)C(C)O2)C(C)C(OC2OC(C)CC(N(C)C)C2O)C(C)(O)CC(C)CN(CCCNC(=O)c2cc(F)c(F)c(OC)c2F)C(C)C(O)C1(C)O.O=CO` (centres unmarked) [Example 59, 9a-[3-({[2,4,5-Trifluoro-3-(methyloxy)phenyl]carbonyl}amino)propyl]-9-deoxo-9-dihydro-9a-aza-9a-homoerythromycin A Formiate Salt] was tested, and the “IC50 W2” value [1] was “B (100 < X ≦ 200)” and the “IC50 3D7A” value [2] was “D (1000 < X ≦ 2500)”.

In the case of `CC[C@H]1OC(=O)[C@H](C)[C@@H](O[C@H]2C[C@@](C)(OC)[C@@H](O)[C@H](C)O2)[C@H](C)[C@@H](O[C@@H]2O[C@H](C)C[C@H](N(C)C)[C@H]2O)[C@](C)(O)C[C@@H](C)CN(CCCNC(=O)C(Cc2ccc(F)cc2)NC(C)=O)[C@H](C)[C@@H](O)[C@]1(C)O.O=CO` (some centres unmarked) [Example 60, 9a-{3-[(N-Acetyl-4-fluorophenylalanyl)amino]propyl}-9-deoxo-9-dihydro-9a-aza-9a-homoerythromycin A Formiate Salt], the “IC50 W2” value [1] is reported as “D (1000 < X ≦ 2500)” and the “IC50 3D7A” value [2] is reported as “H (5000 < X ≦ 10000)”.

`CCC1OC(=O)C(C)C(OC2CC(C)(OC)C(O)C(C)O2)C(C)C(OC2OC(C)CC(N(C)C)C2O)C(C)(O)CC(C)CN(CCCNC(=O)Cc2cccc(Cl)c2)C(C)C(O)C1(C)O.O=CO` (centres unmarked) [Example 62, 9a-(3-{[(3-Chlorophenyl)acetyl]amino}propyl)-9-deoxo-9-dihydro-9a-aza-9a-homoerythromycin A Formiate Salt] was tested, and the “IC50 W2” value [1] was “C (200 < X ≦ 1000)” and the “IC50 3D7A” value [2] was “C (200 < X ≦ 1000)”.

`CCC1OC(=O)C(C)C(OC2CC(C)(OC)C(O)C(C)O2)C(C)C(OC2OC(C)CC(N(C)C)C2O)C(C)(O)CC(C)CN(CCCNC(=O)Cc2ccc(Cl)cc2)C(C)C(O)C1(C)O.O=CO` (centres unmarked) [Example 63, 9a-(3-{[(4-Chlorophenyl)acetyl]amino}propyl)-9-deoxo-9-dihydro-9a-aza-9a-homoerythromycin A Formiate Salt] was tested, and the “IC50 W2” value [1] was “C (200 < X ≦ 1000)” and the “IC50 3D7A” value [2] was “C (200 < X ≦ 1000)”.

For `CCC1OC(=O)C(C)C(OC2CC(C)(OC)C(O)C(C)O2)C(C)C(OC2OC(C)CC(N(C)C)C2O)C(C)(O)CC(C)CN(CCCNC(=O)CCC(=O)c2ccccc2)C(C)C(O)C1(C)O.O=CO` (centres unmarked) [Example 65, 9a-{3-[(4-Oxo-4-phenylbutanoyl)amino]propyl}-9-deoxo-9-dihydro-9a-aza-9a-homoerythromycin A Formiate Salt], the “IC50 W2” value [1] was “D (1000 < X ≦ 2500)” and the “IC50 3D7A” value [2] was “G (3500 < X ≦ 5000)”.

With `CCC1OC(=O)C(C)C(OC2CC(C)(OC)C(O)C(C)O2)C(C)C(OC2OC(C)CC(N(C)C)C2O)C(C)(O)CC(C)CN(CCCNC(=O)c2cc(Cl)ccc2[N+](=O)[O-])C(C)C(O)C1(C)O.O=CO` (centres unmarked) [Example 66, 9a-(3-{[(5-Chloro-2-nitrophenyl)carbonyl]amino}propyl)-9-deoxo-9-dihydro-9a-aza-9a-homoerythromycin A Formiate Salt] the “IC50 W2” value [1] was “C (200 < X ≦ 1000)” and the “IC50 3D7A” value [2] was “D (1000 < X ≦ 2500)”.

`CC[C@H]1OC(=O)[C@H](C)[C@@H](O[C@H]2C[C@@](C)(OC)[C@@H](O)[C@H](C)O2)[C@H](C)[C@@H](O[C@@H]2O[C@H](C)C[C@H](N(C)C)[C@H]2O)[C@](C)(O)C[C@@H](C)CN(CCCNC(=O)Cc2ccccc2[N+](=O)[O-])[C@H](C)[C@@H](O)[C@]1(C)O.O=CO` [Example 67, 9a-(3-{[(2-Nitrophenyl)acetyl]amino}propyl)-9-deoxo-9-dihydro-9a-aza-9a-homoerythromycin A Formiate Salt] was tested, and the “IC50 W2” value [1] was “D (1000 < X ≦ 2500)” and the “IC50 3D7A” value [2] was “H (5000 < X ≦ 10000)”.

`CCC1OC(=O)C(C)C(OC2CC(C)(OC)C(O)C(C)O2)C(C)C(OC2OC(C)CC(N(C)C)C2O)C(C)(O)CC(C)CN(CCCNC(=O)Cc2ccc(F)cc2)C(C)C(O)C1(C)O.O=CO` (centres unmarked) [Example 68, 9a-(3-{[(4-Fluorophenyl)acetyl]amino}propyl)-9-deoxo-9-dihydro-9a-aza-9a-homoerythromycin A Formiate Salt] was tested, and the “IC50 W2” value [1] was “C (200 < X ≦ 1000)” and the “IC50 3D7A” value [2] was “F (2800 < X ≦ 3500)”.

For `CCC1OC(=O)C(C)C(OC2CC(C)(OC)C(O)C(C)O2)C(C)C(OC2OC(C)CC(N(C)C)C2O)C(C)(O)CC(C)CN(CCCNC(=O)Cc2ccccc2F)C(C)C(O)C1(C)O.O=CO` (centres unmarked) [Example 69, 9a-(3-{[(2-Fluorophenyl)acetyl]amino}propyl)-9-deoxo-9-dihydro-9a-aza-9a-homoerythromycin A Formiate Salt], the “IC50 W2” value [1] was “C (200 < X ≦ 1000)” and the “IC50 3D7A” value [2] was “G (3500 < X ≦ 5000)”.

`CC[C@H]1OC(=O)[C@H](C)[C@@H](O[C@H]2C[C@@](C)(OC)[C@@H](O)[C@H](C)O2)[C@H](C)[C@@H](O[C@@H]2O[C@H](C)C[C@H](N(C)C)[C@H]2O)[C@](C)(O)C[C@@H](C)CN(CCCNC(=O)CCc2ccc(F)cc2)[C@H](C)[C@@H](O)[C@]1(C)O.O=CO` [Example 70, 9a-(3-{[3-(4-Fluorophenyl)propanoyl]amino}propyl)-9-deoxo-9-dihydro-9a-aza-9a-homoerythromycin A Formiate Salt] was tested, and the “IC50 W2” value [1] was “C (200 < X ≦ 1000)” and the “IC50 3D7A” value [2] was “D (1000 < X ≦ 2500)”.
